Results published in US20190023733A1, “AMINE DERIVATIVES OF LUPANES WITH HIV MATURATION INHIBITORY ACTIVITY” (priority 2016, published 2019).
Where a name gives a salt, the structure may show the parent alone.

Legend:
HIV-1 (strain IIIB) = assay: MT4 cell antiviral assay (as described in the method); format: cell-based; details: Human immunodeficiency virus 1, IIIB, control and standard in every assay, propidium iodide readout, read-out: expected range of IC50 values
Procedure: Antiviral HIV activity and compound-induced cytotoxicity were measured in parallel by means of a propidium iodide based procedure in the human T-cell lymphotropic virus transformed cell line MT4. Aliquots of the test compounds were serially diluted in medium (RPMI 1640, 10% fetal calf serum (FCS), and gentamycin) in 96-well plates (Costar 3598) using a Cetus Pro/Pette. Exponentially growing MT4 cells were harvested and centrifuged at 1000 rpm for 10 min in a Jouan centrifuge (model CR 4 12). Cell pellets were resuspended in fresh medium (RPMI 1640, 20% FCS, 20% IL-2, and gentamycin) to a density of 5×10^5 cells/ml. […]
For propidium iodide readout, 27 μl of 5% Nonidet-40 was added to each well of the incubation plate. […] The plates were analyzed in an automated assay instrument (Screen Machine, Idexx Laboratories). […]
For MTS readout, 20 μl CellTiter 96 AQ One Solution reagent (Promega #G3582) was added to each well. At 75 minutes following the addition of MTS reagent, absobance was read at 492 nm using a Tecan Sunrise 96-well plate reader. […]
For each assay plate, the results (relative fluorescence units, rfU, or OD values) of wells containing uninfected cells or infected cells with no compound were averaged, respectively. […] Percent of cells remaining is determined by the following formula: […]

HIV = details: cited from earlier work
HIV-1 V370A = assay: MT4 cell antiviral assay, V370A; format: cell-based; details: Human immunodeficiency virus 1, MT4, 120 h, read-out: EC50 V370A
HIV-1 NL4-3 wt = assay: MT4 cell antiviral assay, NL4-3 wt; format: cell-based; details: Human immunodeficiency virus 1, NL43, 120 h; MT4 cells, 5 days, HIV-induced cytopathic effect

| SMILES | EC50 (HIV-1 V370A) | EC50 (HIV-1 NL4-3 wt) | other results |
| --- | --- | --- | --- |
| Cc1cn([C@H]2C[C@H](N=[N+]=[N-])[C@@H](CO)O2)c(=O)[nH]c1=O [3′-azido-3′-deoxythymidine] | – | – | IC50 (HIV-1 (strain IIIB)): 40 to 120 nM |
| C=C(C)[C@@H]1CC[C@]2(C(=O)O)CC[C@]3(C)[C@H](CC[C@@H]4[C@@]5(C)CC[C@H](OC(=O)CC(C)(C)C(=O)O)C(C)(C)[C@@H]5CC[C@]43C)[C@@H]12 [Bevirimat] | – | – | mean reduction of HIV viral load (HIV; patients with trough levels >=20 μg/mL and no key baseline Gag polymorphisms at Q369, V370 or T371): 1.3 log10/mL; viral load reduction versus patients without Gag polymorphisms (HIV; users with Gag polymorphisms at Q369, V370 or T371): significantly lower load reductions |
| CC(C)C1=C2[C@H]3CC[C@@H]4[C@@]5(C)CC=C(C6=CCC(C(=O)O)CC6)C(C)(C)[C@@H]5CC[C@@]4(C)[C@]3(C)CC[C@@]2(NCCN2CCC(S(C)(=O)=O)CC2)CC1=O (stereo partly drawn) [Example 1, 4-((3aR,5aR,5bR,7aR,11aS,11bR,13aS)-1-Isopropyl-5a,5b,8,8,11a-pentamethyl-3a-((2-(4-(methylsulfonyl)piperidin-1-yl)ethyl)amino)-2-oxo-3,3a,4,5,5a,5b,6,7,7a,8,11,11a,11b,12,13,13a-hexadecahydro-2H-cyclopenta[a]chrysen-9-yl)cyclohex-3-enecarboxylic acid] | 352 nM | 99 nM | – |
| CC(C)C1=C2[C@H]3CC[C@@H]4[C@@]5(C)CC=C(C6=CCC(C(=O)O)CC6)C(C)(C)[C@@H]5CC[C@@]4(C)[C@]3(C)CC[C@@]2(NCCN2CCS(=O)(=O)CC2)CC1=O (stereo partly drawn) [Example 2, 4-((3aR,5aR,5bR,7aR,11aS,11bR,13aS)-3a-((2-(1,1-Dioxidothiomorpholino)ethyl)amino)-1-isopropyl-5a,5b,8,8,11a-pentamethyl-2-oxo-3,3a,4,5,5a,5b,6,7,7a,8,11,11a,11b,12,13,13a-hexadecahydro-2H-cyclopenta[a]chrysen-9-yl)cyclohex-3-enecarboxylic acid] | 18 nM | 8 nM | – |
| CC(C)C1=C2[C@H]3CC[C@@H]4[C@@]5(C)CC=C(C6=CCC(C(=O)O)CC6)C(C)(C)[C@@H]5CC[C@@]4(C)[C@]3(C)CC[C@@]2(NCCN(CCN(C)C)Cc2ccc(Cl)cc2)CC1=O (stereo partly drawn) [Example 3, 4-((3aR,5aR,5bR,7aR,11aS,11bR,13aS)-3a-((2-((4-Chlorobenzyl)(2-(dimethylamino)ethyl)amino)ethyl)amino)-1-isopropyl-5a,5b,8,8,11a-pentamethyl-2-oxo-3,3a,4,5,5a,5b,6,7,7a,8,11,11a,11b,12,13,13a-hexadecahydro-2H-cyclopenta[a]chrysen-9-yl)cyclohex-3-enecarboxylic acid] | 42 nM | 11 nM | – |
| CC(C)C1=C2[C@H]3CC[C@@H]4[C@@]5(C)CC=C(c6ccc(C(=O)O)cc6)C(C)(C)[C@@H]5CC[C@@]4(C)[C@]3(C)CC[C@@]2(NCCN(CCN(C)C)Cc2ccc(Cl)cc2)CC1=O [Example 4, 4-((3aR,5aR,5bR,7aR,11aS,11bR,13aS)-3a-((2-((4-Chlorobenzyl)(2-(dimethylamino)ethyl)amino)ethyl)amino)-1-isopropyl-5a,5b,8,8,11a-pentamethyl-2-oxo-3,3a,4,5,5a,5b,6,7,7a,8,11,11a,11b,12,13,13a-hexadecahydro-2H-cyclopenta[a]chrysen-9-yl)benzoic acid hydrochloride salt] | – | 29 nM | – |
| CC(C)C1=C2[C@H]3CC[C@@H]4[C@@]5(C)CC=C(c6ccc(C(=O)O)cc6)C(C)(C)[C@@H]5CC[C@@]4(C)[C@]3(C)CC[C@@]2(NCCN2CCS(=O)(=O)CC2)CC1=O [Example 5, 4-((3aR,5aR,5bR,11aS)-3a-((2-(1,1-Dioxidothiomorpholino)ethyl)amino)-1-isopropyl-5a,5b,8,8,11a-pentamethyl-2-oxo-3,3a,4,5,5a,5b,6,7,7a,8,11,11a,11b,12,13,13a-hexadecahydro-2H-cyclopenta[a]chrysen-9-yl)benzoic acid hydrochloride] | 776 nM | 30 nM | – |
| CC(C)C1=C2C3CCC4[C@@]5(C)CC=C(c6ccc(C(=O)O)cc6)C(C)(C)C5CC[C@@]4(C)[C@]3(C)CC[C@@]2(NC(=O)CN2CCS(=O)(=O)CC2)CC1=O (stereo partly drawn) [Example 6, 4-((3aR,5aR,5bR,11aS)-3a-(2-(1,1-Dioxidothiomorpholino)acetamido)-1-isopropyl-5a,5b,8,8,11a-pentamethyl-2-oxo-3,3a,4,5,5a,5b,6,7,7a,8,11,11a,11b,12,13,13a-hexadecahydro-2H-cyclopenta[a]chrysen-9-yl)benzoic acid hydrochloride salt] | – | 159 nM | – |
| CC(C)C1=C2C3CCC4[C@@]5(C)CC=C(c6ccc(C(=O)O)cc6)C(C)(C)C5CC[C@@]4(C)[C@]3(C)CC[C@@]2(NC(=O)N(CCN(C)C)Cc2ccc(Cl)cc2)CC1=O (stereo partly drawn) [Example 7, 4-((3aR,5aR,5bR,11aS)-3a-(3-(4-chlorobenzyl)-3-(2-(dimethylamino)ethyl)ureido)-1-isopropyl-5a,5b,8,8,11a-pentamethyl-2-oxo-3,3a,4,5,5a,5b,6,7,7a,8,11,11a,11b,12,13,13a-hexadecahydro-2H-cyclopenta[a]chrysen-9-yl)benzoic acid] | – | 6.3 nM | – |
| CC(C)C1=C2C3CCC4[C@@]5(C)CC=C(c6ccc(C(=O)O)cc6)C(C)(C)C5CC[C@@]4(C)[C@]3(C)CC[C@@]2(NC(=O)CN(CCN(C)C)Cc2ccc(Cl)cc2)CC1=O (stereo partly drawn) [Example 8, 4-((3aR,5aR,5bR,11aS)-3a-(2-((4-chlorobenzyl)(2-(dimethylamino)ethyl)amino)acetamido)-1-isopropyl-5a,5b,8,8,11a-pentamethyl-2-oxo-3,3a, 4,5,5a,5b,6,7,7a,8,11,11a,11b,12,13,13a-hexadecahydro-2H-cyclopenta[a]chrysen-9-yl)benzoic acid] | 8 nM | 2 nM | – |
